Assay results published in ChEMBL document CHEMBL1221254, “Succinic acid amides as P2-P3 replacements for inhibitors of interleukin-1beta converting enzyme (ICE or caspase 1)” (Bioorg Med Chem Lett, 2010).

What was measured:
[1] = Selectivity ratio of human ICE to caspase 6
Caspase-1 = biological target: T1, Caspase-1 (Homo sapiens, UniProt P29466); experiment: Inhibition of human ICE
T1 sequence (P29466 whole entry): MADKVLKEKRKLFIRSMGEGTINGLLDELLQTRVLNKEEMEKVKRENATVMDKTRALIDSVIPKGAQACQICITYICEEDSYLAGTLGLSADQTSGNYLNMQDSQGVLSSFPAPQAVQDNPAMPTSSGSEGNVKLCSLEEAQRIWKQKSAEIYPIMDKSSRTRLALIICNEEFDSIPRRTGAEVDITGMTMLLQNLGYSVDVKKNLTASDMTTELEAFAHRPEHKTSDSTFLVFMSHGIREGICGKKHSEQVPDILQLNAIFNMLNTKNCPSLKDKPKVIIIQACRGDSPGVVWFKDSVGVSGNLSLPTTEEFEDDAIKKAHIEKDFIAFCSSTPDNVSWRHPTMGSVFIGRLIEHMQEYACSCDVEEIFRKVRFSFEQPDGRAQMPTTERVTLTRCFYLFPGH

[2] = Selectivity ratio of human ICE to caspase 4
[3] = Selectivity ratio of human ICE to caspase 8
[4] = Selectivity ratio of human ICE to caspase 3
Homo sapiens = organism: Homo sapiens; experiment: Half life in human plasma

Row | SMILES | Selectivity ratio [1] | IC50 (Caspase-1) | Ki (Caspase-1) | Selectivity ratio [2] | Selectivity ratio [3] | Selectivity ratio [4] | half-life (Homo sapiens)
1 | CC(C)[C@H](CC(=O)N1CCN(c2ccccc2)CC1)C(=O)N[C@H](C=O)CC(=O)O | > 200 | 7810 nM | 1020 nM | > 200 | > 200 | > 200 | 
2 | Cc1cc2ncn(CCNC(=O)C[C@H](C(=O)N[C@H](C=O)CC(=O)O)C(C)C)c2cc1C | > 200 | 14.5 nM | 2.81 nM | > 200 | > 200 | > 200 | 
3 | Cc1c(CCNC(=O)C[C@H](C(=O)N[C@H](C=O)CC(=O)O)C(C)C)c2ccccc2n1C | > 200 | 42.5 nM | 0.9 nM | > 200 | > 200 | > 200 | 
4 | COc1ccc(CCCNC(=O)C[C@H](C(=O)N[C@H](C=O)CC(=O)O)C(C)C)cc1 | > 200 | 410 nM | 70.9 nM | > 200 | > 200 | > 200 | 
5 | CC(C)[C@H](CC(=O)NCCc1cccc2ncccc12)C(=O)N[C@H]1CC(=O)O[C@H]1OC1CCCC1 | > 200 |  |  | > 200 | > 200 | > 200 | 15.7 h
6 | CCC(C)O[C@H]1OC(=O)C[C@@H]1NC(=O)[C@@H](CC(=O)NCCc1cccc2ncccc12)C(C)C (stereo partly specified) | > 200 |  |  | > 200 | > 200 | > 200 | 7.7 h
7 | CC(C)[C@H](CC(=O)NCCc1cccc2ccccc12)C(=O)N[C@H](C=O)CC(=O)O | > 200 | 5.7 nM | 0.58 nM | > 200 | > 200 | > 200 | 
8 | CC(C)[C@H](CC(=O)NCCn1cnc2ccccc21)C(=O)N[C@H](C=O)CC(=O)O | > 200 | 33.7 nM | 20 nM | > 200 | > 200 | > 200 | 
9 | CC(C)[C@H](CC(=O)NCCc1c[nH]c2ccccc12)C(=O)N[C@H](C=O)CC(=O)O | > 200 | 23.1 nM | 5.02 nM | > 200 | > 200 | > 200 | 
10 | CC(C)[C@H](CC(=O)NCCc1cncc2ccccc12)C(=O)N[C@H](C=O)CC(=O)O | > 200 | 12 nM | 4.3 nM | > 200 | > 200 | > 200 | 
11 | Cc1ccc2c(c1)ncn2CCNC(=O)C[C@H](C(=O)N[C@H](C=O)CC(=O)O)C(C)C | > 200 | 15.3 nM | 4.85 nM | > 200 | > 200 | > 200 | 
12 | CC(C)[C@H](CC(=O)NCCn1c(-c2cccnc2)nc2ccccc21)C(=O)N[C@H](C=O)CC(=O)O | > 200 | 26.5 nM | 3.85 nM | > 200 | > 200 | > 200 | 
13 | CC(C)[C@H](CC(=O)N(CCOc1ccccc1)C(C)C)C(=O)N[C@H](C=O)CC(=O)O | > 200 | 584 nM | 100 nM | > 200 | > 200 | > 200 | 
14 | CC(C)[C@H](CC(=O)NCCc1ccnc2ccccc12)C(=O)N[C@H](C=O)CC(=O)O | > 200 | 4.77 nM | 1.31 nM | > 200 | > 200 | > 200 | 
15 | Cc1cc2nc(C)n(CCNC(=O)C[C@H](C(=O)N[C@H](C=O)CC(=O)O)C(C)C)c2cc1C | > 200 | 9.18 nM | 1.26 nM | > 200 | > 200 | > 200 | 
16 | CC(C)[C@H](CC(=O)NCCc1c[nH]c2ccc(F)cc12)C(=O)N[C@H](C=O)CC(=O)O | > 200 | 37 nM | 7.9 nM | > 200 | > 200 | > 200 | 
17 | CCO[C@H]1OC(=O)C[C@@H]1NC(=O)[C@@H](CC(=O)NCCc1cccc2ncccc12)C(C)C | > 200 |  |  | > 200 | > 200 | > 200 | 4.3 h
18 | CC(C)[C@H](CC(=O)NCCc1cccc2nc(OCCN(C)C)ccc12)C(=O)N[C@H](C=O)CC(=O)O | > 200 | 102 nM | 16.7 nM | > 200 | > 200 | > 200 | 
19 | CC(C)[C@H](CC(=O)NCCC(=O)c1ccccc1)C(=O)N[C@H](C=O)CC(=O)O | > 200 | 398 nM | 118 nM | > 200 | > 200 | > 200 | 
20 | CC(C)[C@H](CC(=O)N(CCOc1ccccc1)CCC(=O)O)C(=O)N[C@H](C=O)CC(=O)O | > 200 | 114 nM | 9.24 nM | > 200 | > 200 | > 200 | 
21 | CC(C)[C@H](CC(=O)NCCCc1ccccc1)C(=O)N[C@H](C=O)CC(=O)O | > 200 |  |  | > 200 | > 200 | > 200 | 
22 | CC(C)[C@H](CC(=O)N1CCCC(Oc2ccccc2)C1)C(=O)N[C@H](C=O)CC(=O)O (stereo partly specified) | > 200 | 170 nM | 21.5 nM | > 200 | > 200 | > 200 | 
23 | CC(C)[C@H](CC(=O)NCCc1cc(N(C)C)nc2ccccc12)C(=O)N[C@H](C=O)CC(=O)O | > 200 | 3.61 nM | 3 nM | > 200 | > 200 | > 200 | 
24 | CC(C)[C@H](CC(=O)NCCOc1ccccc1)C(=O)N[C@H](C=O)CC(=O)O | > 200 | 539 nM | 16.9 nM | > 200 | > 200 | > 200 | 
25 | CC(C)[C@H](CC(=O)NCCn1ccc2ccccc21)C(=O)N[C@H](C=O)CC(=O)O | > 200 | 45.3 nM | 4.03 nM | > 200 | > 200 | > 200 | 
26 | CCC(C)O[C@@H]1OC(=O)C[C@@H]1NC(=O)[C@@H](CC(=O)NCCc1cccc2ncccc12)C(C)C (stereo partly specified) | > 200 |  |  | > 200 | > 200 | > 200 | 3.9 h
27 | CC(C)[C@H](CC(=O)NCCNc1cccc(Cl)c1)C(=O)N[C@H](C=O)CC(=O)O | > 200 | 11.2 nM | 0.95 nM | > 200 | > 200 | > 200 | 
